Active and inactive are the calls of the source. The calls are words filed in the database; no cut-off is given here.
Columns and labels:
[1] = Inhibition of HIV1 His6-tagged integrase-LEDGF/p75 (unknown origin) interaction at 100 uM incubated for 30 mins followed by LEDGF/p75 addition measured after 4 hrs relative to control
[2] = tested on: Human immunodeficiency virus; test: Antiviral activity against HIV 3B infected in human MT4 cells assessed as protection against virus-induced cytopathic effect at 100 uM by MTT assay; assay type: functional, organism-based
[3] = Inhibition of HIV1 His6-tagged integrase-LEDGF/p75 (unknown origin) interaction incubated for 30 mins followed by LEDGF/p75 addition measured after 4 hrs
MT4 = test: Cytotoxicity against human MT4 cells at 125 uM by MTT assay; assay type: cell-based; conditions: mt4, 125 µM

| SMILES | inhibition [1] | Activity [2] | IC50 [3] [µM] | Activity (MT4) |
| --- | --- | --- | --- | --- |
| O=C(O)c1nn(Cc2ccc(Cl)cc2Cl)c2ccccc12 | 40% | – | – | – |
| COc1ccc2nc(C)cc(Nc3cccc(C(=O)O)c3)c2c1 | 30% | – | – | – |
| Cc1c(OC(C(=O)O)c2ccccc2)ccc2c(-c3ccccc3)cc(=O)oc12 (racemic) | 87% | inactive | 37.2 | – |
| Cc1ccc2[nH]c(=O)c(CC(=O)O)c(-c3ccccc3)c2c1 | 61% | – | 52.5 | – |
| O=C(O)c1cc(N(Cc2ccccc2O)Cc2ccccc2O)ccc1O [LAVENDUSTIN B] | 58% | – | 94.1 | – |
| Cn1c(=O)c(CC(=O)O)c(O)c2ccccc21 | inactive | – | – | – |
| COc1ccc(/C=C2/SC(=S)N(C(C(=O)O)C(C)C)C2=O)cc1 (racemic) | – | inactive | 41.3 | Non-toxic |
| CCCC(C(=O)O)c1cnc2ccc(Cl)cc2c1-c1ccccc1 (racemic) | – | – | 1.37 | – |
| CCc1cc(C(=O)Cc2ccc3c(c2)OCCO3)c(O)cc1OCC(=O)O | 50% | – | > 100 | – |
| O=C(O)Cc1c(-c2ccccc2)c2cc(Cl)ccc2[nH]c1=O | – | – | 12.2 | – |
| Cc1cn2c3c(=O)n(CCc4ccccc4)c(=O)n(C)c3nc2n1CC(=O)O | 52% | – | – | – |

From ChEMBL document CHEMBL2424593, “New scaffolds of natural origin as Integrase-LEDGF/p75 interaction inhibitors: virtual screening and activity assays” (Eur J Med Chem, 2013)
